This is an account of results in patent publication US12172983B2, “EGFR inhibitors” (Blueprint Medicines Corporation, priority 2019, dated 2024).

pIC50: −log10 of the molar value.

For one assay, the target named is T1, EGFR (L858R T790M C797S) (Homo sapiens, UniProt P00533, C797S/L858R/T790M).
T1 construct: purchased SignalChem E10-122VG
Put plainly: Biochemical EGFR inhibition assay (Caliper mobility shift), EGFR LRTMCS mutant. Conditions: inhibitory activity against EGFR LRTMCS mutant; apparent IC50; read-out: Ext Enz LRTMCS. Put shortly:
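Each enzyme was allowed to phosphorylate 10–20% of its peptide at 25° C. before EDTA (35 mM) quench. Separated substrate and product peaks were measured by mobility shift, giving apparent IC50 values.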

Assay [1] concerns phosphorylation of EGFR (Tyr1068) in NCI-H1975 cell line that harbors the EGFR L858R T790M mutations. The assay is described as follows: NCI-H1975 pEGFR AlphaLISA assay. In kind it is cell-based. Conditions: Homo sapiens, NCI-H1975, inhibition of phosphorylation of mutant EGFR in NCI-H1975 cells; 4-5 hours incubation; read-out: Ext pEGFR H1975. Put shortly: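 Phospho-EGFR Tyr1068 AlphaLISA readout: lysates taken from compound-treated H1975 cells (L858R T790M EGFR) after a 4-5 h exposure at 37 °C. Cells had adhered overnight beforehand. IC50 derived by plotting % pEGFR inhibition against log compound concentration.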
(In Alpha technology, singlet oxygen from a donor bead excites a nearby acceptor bead.)

T1 sequence (P00533 25-1210 T790M/C797S/L858R): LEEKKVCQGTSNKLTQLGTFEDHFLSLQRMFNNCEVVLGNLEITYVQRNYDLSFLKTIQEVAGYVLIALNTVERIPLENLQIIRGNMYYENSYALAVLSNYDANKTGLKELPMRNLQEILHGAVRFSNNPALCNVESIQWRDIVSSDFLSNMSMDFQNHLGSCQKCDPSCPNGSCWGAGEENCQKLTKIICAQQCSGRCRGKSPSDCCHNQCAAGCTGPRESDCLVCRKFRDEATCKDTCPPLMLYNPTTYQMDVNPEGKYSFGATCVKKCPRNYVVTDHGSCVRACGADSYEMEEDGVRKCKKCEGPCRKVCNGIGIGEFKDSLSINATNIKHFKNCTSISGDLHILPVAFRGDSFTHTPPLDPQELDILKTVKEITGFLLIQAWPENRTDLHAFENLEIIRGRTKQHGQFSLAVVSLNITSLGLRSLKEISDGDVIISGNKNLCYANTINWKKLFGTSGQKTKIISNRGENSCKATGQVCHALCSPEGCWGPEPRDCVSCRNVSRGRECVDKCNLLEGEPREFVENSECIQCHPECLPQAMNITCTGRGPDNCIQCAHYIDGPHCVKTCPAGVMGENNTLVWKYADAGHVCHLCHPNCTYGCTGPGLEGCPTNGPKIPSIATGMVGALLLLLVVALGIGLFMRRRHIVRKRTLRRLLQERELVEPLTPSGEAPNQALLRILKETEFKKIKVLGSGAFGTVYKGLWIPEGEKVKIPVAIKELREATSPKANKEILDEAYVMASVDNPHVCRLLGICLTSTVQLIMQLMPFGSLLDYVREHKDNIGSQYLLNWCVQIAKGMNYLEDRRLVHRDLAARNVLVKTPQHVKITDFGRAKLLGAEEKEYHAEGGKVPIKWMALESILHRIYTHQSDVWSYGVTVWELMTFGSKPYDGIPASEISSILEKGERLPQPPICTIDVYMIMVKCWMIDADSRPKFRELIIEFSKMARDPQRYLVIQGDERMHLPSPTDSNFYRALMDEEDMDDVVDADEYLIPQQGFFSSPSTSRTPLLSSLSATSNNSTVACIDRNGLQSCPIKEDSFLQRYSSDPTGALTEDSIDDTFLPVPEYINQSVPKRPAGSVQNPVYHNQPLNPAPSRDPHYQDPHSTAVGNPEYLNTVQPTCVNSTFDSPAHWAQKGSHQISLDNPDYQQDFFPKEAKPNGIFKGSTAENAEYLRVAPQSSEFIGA

With `CCS(=O)(=O)C[C@H]1CN(c2ncc(C(C)C)c3cc(Nc4ccnc(N5CC[C@H](OCCO)[C@H](F)C5)n4)ncc23)[C@@H]1C` [Compound 250, 2-{[(3R,4S)-1-[4-({8-[(2R,3S)-3-[(ethanesulfonyl)methyl]-2-methylazetidin-1-yl]-5-(propan-2-yl)-2,7-naphthyridin-3-yl}amino)pyrimidin-2-yl]-3-fluoropiperidin-4-yl]oxy}ethan-1-ol], the pIC50 at EGFR (L858R T790M C797S) was no less than 7.82; in assay [1], no less than 8.00.

For the molecule `CC(C)c1ccc(N2C[C@H](CS(C)(=O)=O)[C@H]2C)c2cnc(Nc3ccnc(N4CC[C@H](OCCN(C)C)[C@H](F)C4)n3)cc12` [Compound 253, N-{2-[(3R,4S)-4-[2-(dimethylamino)ethoxy]-3-fluoropiperidin-1-yl]pyrimidin-4-yl}-8-[(2R,3S)-3-(methanesulfonylmethyl)-2-methylazetidin-1-yl]-5-(propan-2-yl)isoquinolin-3-amine], the pIC50 at EGFR (L858R T790M C797S) is no less than 7.82; in assay [1], no less than 8.00.

Turning to `CC(C)c1ccc(N2C[C@H](CS(C)(=O)=O)[C@H]2C)c2cnc(Nc3ccnc(N4CC[C@@H](OCCN(C)C)[C@@H](F)C4)n3)cc12` [Compound 254, N-{2-[(3S,4R)-4-[2-(dimethylamino)ethoxy]-3-fluoropiperidin-1-yl]pyrimidin-4-yl}-8-[(2R,3S)-3-(methanesulfonylmethyl)-2-methylazetidin-1-yl]-5-(propan-2-yl)isoquinolin-3-amine], the pIC50 on EGFR (L858R T790M C797S) was no less than 7.82; in assay [1] it was no less than 8.00.

Turning to `CC(C)c1ccc(N2C[C@H](CS(C)(=O)=O)[C@H]2C)c2cnc(Nc3ccnc(N4CC[C@H](OCC(C)(C)O)[C@H](F)C4)n3)cc12` [Compound 255, 1-{[(3R,4S)-3-fluoro-1-[4-({8-[(2R,3S)-3-(methanesulfonylmethyl)-2-methylazetidin-1-yl]-5-(propan-2-yl)isoquinolin-3-yl}amino)pyrimidin-2-yl]piperidin-4-yl]oxy}-2-methylpropan-2-ol], the pIC50 on EGFR (L858R T790M C797S) was 7.52 to 7.70; in assay [1], no less than 8.00.

Take `CC(C)c1ccc(N2C[C@H](CS(C)(=O)=O)[C@H]2C)c2cnc(Nc3ccnc(N4CC[C@@H](OCC(C)(C)O)[C@@H](F)C4)n3)cc12` [Compound 256, 1-{[(3S,4R)-3-fluoro-1-[4-({8-[(2R,3S)-3-(methanesulfonylmethyl)-2-methylazetidin-1-yl]-5-(propan-2-yl)isoquinolin-3-yl}amino)pyrimidin-2-yl]piperidin-4-yl]oxy}-2-methylpropan-2-ol]: the pIC50 at EGFR (L858R T790M C797S) was 7.52 to 7.70; in assay [1], no less than 8.00.

Consider `CC(C)c1ncc(N2C[C@H](CS(C)(=O)=O)[C@H]2C)c2cnc(Nc3ccnc(N4CC[C@H](OCC(C)(C)O)[C@H](F)C4)n3)cc12` [Compound 257, 1-{[(3R,4S)-3-fluoro-1-[4-({8-[(2R,3S)-3-(methanesulfonylmethyl)-2-methylazetidin-1-yl]-5-(propan-2-yl)-2,6-naphthyridin-3-yl}amino)pyrimidin-2-yl]piperidin-4-yl]oxy}-2-methylpropan-2-ol], for which the pIC50 at EGFR (L858R T790M C797S) is 7.70 to 7.82; in assay [1], 7.70 to 8.00.

For the molecule `CC(C)c1ncc(N2C[C@H](CS(C)(=O)=O)[C@H]2C)c2cnc(Nc3ccnc(N4CC[C@@H](OCC(C)(C)O)[C@@H](F)C4)n3)cc12` [Compound 258, 1-{[(3S,4R)-3-fluoro-1-[4-({8-[(2R,3S)-3-(methanesulfonylmethyl)-2-methylazetidin-1-yl]-5-(propan-2-yl)-2,6-naphthyridin-3-yl}amino)pyrimidin-2-yl]piperidin-4-yl]oxy}-2-methylpropan-2-ol], the pIC50 is no less than 7.82 on EGFR (L858R T790M C797S) and no less than 8.00 in assay [1].

Regarding `CC(C)c1cnc(N2C[C@H](CS(C)(=O)=O)[C@H]2C)c2cnc(Nc3ccnc(N4CC[C@H](OCC(C)(C)O)[C@H](F)C4)n3)cc12` [Compound 259, 1-{[(3R,4S)-3-fluoro-1-[4-({8-[(2R,3S)-3-(methanesulfonylmethyl)-2-methylazetidin-1-yl]-5-(propan-2-yl)-2,7-naphthyridin-3-yl}amino)pyrimidin-2-yl]piperidin-4-yl]oxy}-2-methylpropan-2-ol], the pIC50 was no less than 7.82 at EGFR (L858R T790M C797S) and no less than 8.00 in assay [1].

As to `CC(C)c1cnc(N2C[C@H](CS(C)(=O)=O)[C@H]2C)c2cnc(Nc3ccnc(N4CC[C@@H](OCC(C)(C)O)[C@@H](F)C4)n3)cc12` [Compound 260, 1-{[(3S,4R)-3-fluoro-1-[4-({8-[(2R,3S)-3-(methanesulfonylmethyl)-2-methylazetidin-1-yl]-5-(propan-2-yl)-2,7-naphthyridin-3-yl}amino)pyrimidin-2-yl]piperidin-4-yl]oxy}-2-methylpropan-2-ol], the pIC50 on EGFR (L858R T790M C797S) is no less than 7.82; in assay [1] it was no less than 8.00.

Take `CCS(=O)(=O)CC1CN(c2ccc(C(C)C)c3cc(Nc4ccnc(N5CC[C@@H](OC)[C@@H](F)C5)n4)ncc23)C1` [Compound 261, 8-{3-[(ethanesulfonyl)methyl]azetidin-1-yl}-N-{2-[(3S,4R)-3-fluoro-4-methoxypiperidin-1-yl]pyrimidin-4-yl}-5-(propan-2-yl)isoquinolin-3-amine]: the results for the pIC50 (at EGFR (L858R T790M C797S); in assay [1]) were no less than 7.82 and no less than 8.00, respectively.

As for `CCS(=O)(=O)CC1CN(c2ccc(C(C)C)c3cc(Nc4ccnc(N5CC[C@H](OC)[C@H](F)C5)n4)ncc23)C1` [Compound 262, 8-{3-[(ethanesulfonyl)methyl]azetidin-1-yl}-N-{2-[(3R,4S)-3-fluoro-4-methoxypiperidin-1-yl]pyrimidin-4-yl}-5-(propan-2-yl)isoquinolin-3-amine], the pIC50 on EGFR (L858R T790M C797S) is no less than 7.82; in assay [1], no less than 8.00.

Turning to `[2H]C([2H])([2H])OC1CCN(c2nccc(Nc3cc4c(C(C)C)ccc(N5C[C@H](CS(C)(=O)=O)[C@H]5C)c4cn3)n2)CC1` [Compound 263, 8-[(2R,3S)-3-(methanesulfonylmethyl)-2-methylazetidin-1-yl]-N-{2-[4-(^2H3)methoxypiperidin-1-yl]pyrimidin-4-yl}-5-(propan-2-yl)isoquinolin-3-amine], the results for the pIC50 (on EGFR (L858R T790M C797S); in assay [1]) were 7.70 to 7.82 and 7.70 to 8.00, respectively.

As for `[2H]C([2H])([2H])O[C@@H]1CCN(c2nccc(Nc3cc4c(C(C)C)cnc(N5CC(CS(C)(=O)=O)C5)c4cn3)n2)C[C@@H]1F` [Compound 264, N-{2-[(3S,4R)-3-fluoro-4-(^2H3)methoxypiperidin-1-yl]pyrimidin-4-yl}-8-[3-(methanesulfonylmethyl)azetidin-1-yl]-5-(propan-2-yl)-2,7-naphthyridin-3-amine], the pIC50 was no less than 7.82 at EGFR (L858R T790M C797S) and no less than 8.00 in assay [1].

As for `CCS(=O)(=O)CC1CN(c2ccc(C(C)C)c3cc(Nc4ccnc(N5CC[C@@](C)(O)[C@@H](F)C5)n4)ncc23)C1` [Compound 276, (3S,4R)-1-{4-[(8-{3-[(ethanesulfonyl)methyl]azetidin-1-yl}-5-(propan-2-yl)isoquinolin-3-yl)amino]pyrimidin-2-yl}-3-fluoro-4-methylpiperidin-4-ol], the pIC50 at EGFR (L858R T790M C797S) was no less than 7.82; in assay [1] it was no less than 8.00.

Consider `CCS(=O)(=O)CC1CN(c2ccc(C(C)C)c3cc(Nc4cnnc(N5CC[C@@H](OC)[C@@H](F)C5)n4)ncc23)C1` [Compound 280, 8-{3-[(ethanesulfonyl)methyl]azetidin-1-yl}-N-{3-[(3S,4R)-3-fluoro-4-methoxypiperidin-1-yl]-1,2,4-triazin-5-yl}-5-(propan-2-yl)isoquinolin-3-amine], for which the pIC50 is no less than 7.82 at EGFR (L858R T790M C797S) and no less than 8.00 in assay [1].

With `CCS(=O)(=O)CC1CN(c2ccc(C(C)C)c3cc(Nc4cnnc(N5CC[C@H](OC)[C@H](F)C5)n4)ncc23)C1` [Compound 281, 8-{3-[(ethanesulfonyl)methyl]azetidin-1-yl}-N-{3-[(3R,4S)-3-fluoro-4-methoxypiperidin-1-yl]-1,2,4-triazin-5-yl}-5-(propan-2-yl)isoquinolin-3-amine], the pIC50 on EGFR (L858R T790M C797S) was no less than 7.82; in assay [1] it was no less than 8.00.

Consider `CCS(=O)(=O)C[C@H]1CN(c2ccc(C(C)C)c3cc(Nc4cnnc(N5CC[C@@H](OC)[C@@H](F)C5)n4)ncc23)[C@@H]1C` [Compound 288, 8-[(2R,3S)-3-[(ethanesulfonyl)methyl]-2-methylazetidin-1-yl]-N-{3-[(3S,4R)-3-fluoro-4-methoxypiperidin-1-yl]-1,2,4-triazin-5-yl}-5-(propan-2-yl)isoquinolin-3-amine], for which the pIC50 was no less than 7.82 on EGFR (L858R T790M C797S) and no less than 8.00 in assay [1].

As for `CCS(=O)(=O)C[C@H]1CN(c2ccc(C(C)C)c3cc(Nc4cnnc(N5CC[C@H](OC)[C@H](F)C5)n4)ncc23)[C@@H]1C` [Compound 289, 8-[(2R,3S)-3-[(ethanesulfonyl)methyl]-2-methylazetidin-1-yl]-N-{3-[(3R,4S)-3-fluoro-4-methoxypiperidin-1-yl]-1,2,4-triazin-5-yl}-5-(propan-2-yl)isoquinolin-3-amine], the pIC50 is no less than 7.82 at EGFR (L858R T790M C797S) and no less than 8.00 in assay [1].

Turning to `CC(C)c1ccc(N2CC(CS(C)(=O)=O)C2)c2cnc(Nc3ccnc(N4CC[C@H](OCCO)[C@H](F)C4)n3)cc12` [Compound 290, 2-{[(3R,4S)-3-fluoro-1-[4-({8-[3-(methanesulfonylmethyl)azetidin-1-yl]-5-(propan-2-yl)isoquinolin-3-yl}amino)pyrimidin-2-yl]piperidin-4-yl]oxy}ethan-1-ol], the pIC50 on EGFR (L858R T790M C797S) was no less than 7.82; in assay [1], no less than 8.00.
